According to ChEMBL document CHEMBL5608163, “Structure modification of anoplin for fighting resistant bacteria” (Eur J Med Chem, 2024):
Values after ≈ are worked out from the molar mass of the structure shown. Square brackets hold non-standard residues; d marks the D form. Peptide text beside a SMILES is read from it. 2Nal = N[C@@H](Cc1ccc2ccccc2c1)C(=O)O; hIle = CC[C@H](C)C[C@H](N)C(=O)O; Cha = N[C@@H](CC1CCCCC1)C(=O)O

Assays:
Pseudomonas aeruginosa [1] = test: Antibacterial activity against Pseudomonas aeruginosa ATCC 27853 assessed as reduction in microbial growth incubated for 16 to 20 hrs by CLSI protocol based Muller Hinton broth assay; assay type: functional; conditions: time 16-20 hrs
[2] = Hemolytic activity in human RBC assessed as hemolysis measured after 24 hrs; assay type: toxicity, cell-based, Erythrocyte; conditions: red blood cells
Escherichia coli [3] = test: Antibacterial activity against Escherichia coli ATCC 25922 assessed as reduction in microbial growth incubated for 16 to 20 hrs by CLSI protocol based Muller Hinton broth assay; assay type: functional; conditions: time 16-20 hrs
Staphylococcus aureus [4] = test: Antibacterial activity against methicillin-resistant Staphylococcus aureus ATCC 33591 assessed as reduction in bacterial growth incubated for 18 hrs by agar dilution method; assay type: functional
Enterococcus faecium = test: Antibacterial activity against vancomycin resistant Enterococcus faecium ATCC 700221 assessed as inhibition of bacterial growth incubated for 48 hrs by CLSI-based broth microdilution assay; assay type: functional
Erythrocyte = test: Hemolytic activity in mouse erythrocyte assessed as hemolysis incubated for 1 hr by microplate reader analysis; assay type: toxicity, cell-based
Klebsiella pneumoniae = test: Antibacterial activity against Klebsiella pneumoniae ATCC 700603 assessed as reduction in bacterial growth incubated for 18 hrs by CLSI-based Mueller-Hinton broth dilution method; assay type: functional
Staphylococcus aureus [5] = test: Antimicrobial activity against Staphylococcus aureus ATCC 25923 assessed as reduction in microbial growth incubated for 18 hrs by CLSI-based Mueller-Hinton broth dilution method; assay type: functional
Pseudomonas aeruginosa [6] = test: Antibacterial activity against Pseudomonas aeruginosa ATCC 27853 assessed as reduction in bacterial growth incubated for 18 hrs by CLSI-based Mueller-Hinton broth dilution method; assay type: functional
[7] = system: Staphylococcus epidermidis; test: Antibacterial activity against Staphylococcus epidermidis ATCC 12228 assessed as reduction in bacterial growth incubated for 18 hrs by CLSI-based Mueller-Hinton broth dilution method; assay type: functional
Bacillus subtilis = test: Antibacterial activity against Bacillus subtilis ATCC 23857 assessed as reduction in bacterial growth incubated for 18 hrs by CLSI-based Mueller-Hinton broth dilution method; assay type: functional
Escherichia coli [8] = test: Antibacterial activity against Escherichia coli ML-35 ATCC 43837 assessed as reduction in bacterial growth incubated for 18 hrs by CLSI-based Mueller-Hinton broth dilution method; assay type: functional
Acinetobacter baumannii = test: Antibacterial activity against Acinetobacter baumannii ATCC 19606 assessed as reduction in bacterial growth incubated for 18 hrs by CLSI-based Mueller-Hinton broth dilution method; assay type: functional

| Compound | MIC (Pseudomonas aeruginosa [1]) | HC50 at 24 h [2] | MIC (Escherichia coli [3]) | MIC (Staphylococcus aureus [4]) | MIC (Enterococcus faecium) | HC10 (Erythrocyte) | MIC (Klebsiella pneumoniae) | MIC (Staphylococcus aureus [5]) | MIC (Pseudomonas aeruginosa [6]) | MIC [7] | MIC (Bacillus subtilis) | MIC (Escherichia coli [8]) | MIC (Acinetobacter baumannii) |
| --- | --- | --- | --- | --- | --- | --- | --- | --- | --- | --- | --- | --- | --- |
| CC[C@H](C)C[C@H](NC(=O)[C@H](CCCNC(=N)N)NC(=O)[C@H](CCCCN)NC(=O)[C@H](CC(C)C)NC(=O)[C@H](CC1CCCCC1)NC(=O)CN)C(=O)N[C@@H](CCCCN)C(=O)N[C@H](C(=O)N[C@@H](CC(C)C)C(=O)N[C@@H](CC(C)C)C(N)=O)[C@@H](C)O (H-G[Cha]LKR[hIle]KTLL-NH2) | 28.4 µM | 195 µM | 25 µM | 85.3 µM (≈ 103 µg/mL) | 15.8 µM (≈ 19.1 µg/mL) | – | – | – | – | – | – | – | – |
| CC[C@H](C)[C@H](NC(=O)[C@H](Cc1c[nH]c2ccccc12)NC(=O)[C@H](CCCCN)NC(=O)[C@H](CC(C)C)NC(=O)[C@H](CC(C)C)NC(=O)CN)C(=O)N[C@@H](CCCCN)C(=O)N[C@@H](CCCCN)C(=O)N[C@@H](CC(C)C)C(=O)N[C@@H](CC(C)C)C(N)=O (H-GLLKWIKKLL-NH2) | 9.5 µM | 11.6 µM | 3.2 µM | 2.5 µM (≈ 3.03 µg/mL) | 3.2 µM (≈ 3.87 µg/mL) | – | – | – | – | – | – | – | – |
| CC[C@H](C)C[C@H](NC(=O)[C@H](CCCNC(=N)N)NC(=O)[C@H](CCCCN)NC(=O)[C@H](CC(C)C)NC(=O)[C@H](CC(C)C)NC(=O)CN)C(=O)N[C@@H](CCCCN)C(=O)N[C@H](C(=O)N[C@@H](Cc1ccc2ccccc2c1)C(=O)N[C@@H](CC(C)C)C(N)=O)[C@@H](C)O (H-GLLKR[hIle]KT[2Nal]L-NH2) | 28.4 µM | 149 µM | 15.8 µM | 28.4 µM (≈ 35.5 µg/mL) | 8.8 µM (≈ 11 µg/mL) | – | – | – | – | – | – | – | – |
| CC(C)C[C@H](NC(=O)[C@H](CC(C)C)NC(=O)[C@@H](NC(=O)[C@H](CCCCN)NC(=O)[C@H](Cc1ccc2ccccc2c1)NC(=O)[C@H](CCCNC(=N)N)NC(=O)[C@H](CCCCN)NC(=O)[C@H](CC(C)C)NC(=O)[C@H](CC(C)C)NC(=O)CN)[C@@H](C)O)C(N)=O (H-GLLKR[2Nal]KTLL-NH2) | 28.4 µM | > 500 µM | 28.4 µM | 85.3 µM (≈ 106 µg/mL) | 28.4 µM (≈ 35.1 µg/mL) | – | – | – | – | – | – | – | – |
| CCCCCCCCCCC(=O)NCCCC[C@@H](NC(=O)[C@@H](NC(=O)[C@H](CCCNC(=N)N)NC(=O)[C@@H](CCCCN)NC(=O)[C@H](CC(C)C)NC(=O)[C@H](CC(C)C)NC(=O)CN)[C@@H](C)CC)C(=O)N[C@H](C(=O)N[C@@H](CC(C)C)C(=O)N[C@@H](CC(C)C)C(N)=O)[C@@H](C)O | – | – | – | – | – | 128 µM | 8 µM (≈ 10.6 µg/mL) | 8 µM | 4 µM (≈ 5.29 µg/mL) | 4 µM (≈ 5.29 µg/mL) | 2 µM (≈ 2.64 µg/mL) | 4 µM (≈ 5.29 µg/mL) | 4 µM (≈ 5.29 µg/mL) |
| CC[C@H](C)[C@H](NC(=O)[C@H](CCCNC(=N)N)NC(=O)[C@H](CCCCN)NC(=O)[C@H](Cc1ccc2ccccc2c1)NC(=O)[C@H](CC(C)C)NC(=O)CN)C(=O)N[C@@H](CCCCN)C(=O)N[C@H](C(=O)N[C@@H](CC(C)C)C(=O)N[C@@H](CC(C)C)C(N)=O)[C@@H](C)O (H-GL[2Nal]KRIKTLL-NH2) | 9.5 µM | 172 µM | 28.4 µM | 28.4 µM (≈ 35.1 µg/mL) | 9.5 µM (≈ 11.8 µg/mL) | – | – | – | – | – | – | – | – |
| CC[C@H](C)C[C@H](NC(=O)[C@H](CCCNC(=N)N)NC(=O)[C@H](CCCCN)NC(=O)[C@H](CC(C)C)NC(=O)[C@H](CC(C)C)NC(=O)CN)C(=O)N[C@@H](CCCCN)C(=O)N[C@H](C(=O)N[C@@H](CC(C)C)C(=O)N[C@@H](Cc1ccc2ccccc2c1)C(N)=O)[C@@H](C)O (H-GLLKR[hIle]KTL[2Nal]-NH2) | 9.5 µM | 18 µM | 22.1 µM | 28.4 µM (≈ 35.5 µg/mL) | 9.5 µM (≈ 11.9 µg/mL) | – | – | – | – | – | – | – | – |
| CCCCCCCCCCC(=O)NCCCC[C@@H](NC(=O)[C@H](CC(C)C)NC(=O)[C@H](CC(C)C)NC(=O)CN)C(=O)N[C@@H](CCCNC(=N)N)C(=O)N[C@H](C(=O)N[C@H](CCCCN)C(=O)N[C@H](C(=O)N[C@@H](CC(C)C)C(=O)N[C@@H](CC(C)C)C(N)=O)[C@@H](C)O)[C@@H](C)CC | – | – | – | – | – | 256 µM | 32 µM (≈ 42.3 µg/mL) | 8 µM | 8 µM (≈ 10.6 µg/mL) | 2 µM (≈ 2.64 µg/mL) | 4 µM (≈ 5.29 µg/mL) | 8 µM (≈ 10.6 µg/mL) | 16 µM (≈ 21.1 µg/mL) |
| CC[C@H](C)C[C@H](NC(=O)[C@H](CCCNC(=N)N)NC(=O)[C@H](CCCCN)NC(=O)[C@H](CC1CCCCC1)NC(=O)[C@H](CC(C)C)NC(=O)CN)C(=O)N[C@@H](CCCCN)C(=O)N[C@H](C(=O)N[C@@H](CC(C)C)C(=O)N[C@@H](CC(C)C)C(N)=O)[C@@H](C)O (H-GL[Cha]KR[hIle]KTLL-NH2) | 28.4 µM | 436 µM | 28.4 µM | 28.4 µM (≈ 34.3 µg/mL) | 28.4 µM (≈ 34.3 µg/mL) | – | – | – | – | – | – | – | – |
